Key:
LNCaP cells [1] = assay: MTT cell proliferation assay, LNCaP; assay type: cell-based, human; settings: 72 h
Procedure: (§1) Cell lines, namely LNCaP, PC-3, T47-D and NHDF were obtained from American Type Culture Collection (ATCC; Manassas, VA, USA) and cultured in 75 cm^2 culture flasks at 37 °C in a humidified air incubator with 5% CO2. LNCaP, PC-3 and T47-D cells, which were used in passages 20th to 27th, 25th to 29th and 10th to 15th, respectively, were cultured in RPMI 1640 medium (Sigma-Aldrich, Inc., St. Louis, MO, USA) with 10% fetal bovine serum (FBS; Sigma-Aldrich, Inc. St. Louis, MO, USA) and 1% of the antibiotic mixture of 10,000 IU/mL penicillin G and […] of streptomycin (Sp, Sigma-Aldrich, Inc. St. Louis, MO, USA). Finally, NHDF cells (Normal Human Dermal Fibroblasts) were cultured in RPMI 1640 medium supplemented with 10% FBS, 2 mM L-glutamine, 10 mM HEPES, 1 mM sodium pyruvate and 1% of an antibiotic/antimycotic mixture (10,000 U/mL penicillin G, 100 mg/mL streptomycin and 25 µg/mL amphotericin B) (Ab; Sigma-Aldrich, Inc. St. Louis, MO, USA), and these cells were used in passages 10 to 12. For all cell types, the medium was renewed every 2–3 days until cells reach nearly the confluence state. Then, they were detached gently by trypsinization (trypsin-EDTA solution: 0.125 g/L of trypsin and 0.02 g/L of EDTA).
(§2) All the stock solutions were prepared by dissolving compounds in dimethyl sulfoxide (DMSO; Sigma-Aldrich, Inc., St. Louis, MO, USA) at 10 mM and stored at 4 °C. From these solutions, the several diluted compounds solutions in different concentrations were freshly prepared in a complete culture medium before each experiment.
(§3) As previously referred, cells were trypsinized after reaching a near confluence state and counted by the trypan blue exclusion assay in a Neubauer chamber. Then, 100 µL of cell suspension/well with an initial density of 2 × 10^4 cells/mL were seeded in 96-well culture plates (Nunc, Apogent, Denmark) and left to adhere for 48 h. After cells adherence, the medium was replaced by the distinct solutions of the compounds in the study (30 µM for preliminary studies and 0.01, 0.1, 1, 10, 50 and 100 µM for concentration–response studies) in the appropriate medium for approximately 72 h. 5-FU and finasteride were used as positive controls and untreated cells were used as the negative control. Each experiment was performed in quadruplicate and independently performed at least two times. The in vitro antiproliferative effects were evaluated by the MTT assay (Sigma-Aldrich, Inc. St. Louis, USA). After the incubation period, the medium was removed and 100 µL of phosphate buffer saline (NaCl 137 mM, KCl 2.7 mM, Na2HPO4 10 mM and KH2PO4 1.8 mM in deionized water and pH adjusted to 7.4) were used to wash the cells. Then, 100 µL of the MTT solution (5 mg/mL) was prepared in the appropriate serum-free medium and was added to each well, followed by incubation for 4 h at 37 °C. Hereafter, the MTT containing medium was removed and the formazan crystals were dissolved in DMSO. Then the absorbance was measured at 570 nm using a microplate spectrophotometer BIO-RAD xMarkTM. Cell viability values were expressed as percentages relative to the absorbance determined in the cells used as negative controls.
(§4) The data are expressed as a mean ± standard deviation (SD) and differences between groups were considered statistically significant when p < 0.05. The IC50 values were determined through sigmoidal fitting analysis with variable slope and considering a 95% confidence level. All data shown are representative of at least two independent experiments.

[2] = system: NHDF cells (Normal Human Dermal Fibroblasts); assay: MTT cell proliferation assay, NHDF; assay type: cell-based; settings: 72 h
Procedure: as §1, §2, §3, §4

T47-D cells = assay: MTT cell proliferation assay, T47-D; assay type: cell-based, human; settings: 72 h
Procedure: as §1, §2, §3, §4

PC-3 cells = assay: MTT cell proliferation assay, PC-3; assay type: cell-based, human
Procedure: as §1, §2, §3, §4

LNCaP cells [3] = assay: Flow cytometry cell viability after PI staining; assay type: cell-based, human; settings: 50 µM
Procedure: Similar to the previous study, the analysis of cell viability was accomplished by flow cytometry after staining dead cells with propidium iodide (PI; Invitrogen, Carlsbad, USA). Succinctly, 1 mL of a cell suspension was seeded in 12-well culture plates (initial cell density of 5 × 10^4 cells/mL of LNCaP cells for 24 h assay and 2 × 10^4 cells/mL of the same cell line for 72 h assay) in a complete culture medium. After 48 h, the cells were treated with finasteride and 5-FU, as positive controls, and compound 3g at a concentration of 50 µM. Untreated cells were used as a negative control. At the pretended time point, the supernatant was collected and pooled with the cells harvested by trypsin treatment (each well was also washed with 400 µL of PBS before trypsin treatment). The resulting cell suspension was kept on ice and pelleted by centrifugation and resuspended with 400 µL of complete medium. Afterward, 5 µL of PI (1 mg/mL) was transferred to a FACS tube and 395 µL of the cell suspension was added to this tube. A total of 20,000 events (very small events excluded) were acquired using a FACSCalibur flow cytometer, using the FCS, SSC and FL3 (PI) channels. Acquisition and analysis were executed with CellQuestTM Pro (v. 5.1) software. […] The percentages of each region were calculated for a total of R1 + R2 + R3. […]

`C[C@]12CC[C@H]3[C@@H](CC=C4NC(=O)CC[C@@]43C)[C@@H]1CC[C@@H]2C(=O)/C=C/c1cccnc1` [Compound 3g, 21E-[(Pyridin-3-yl)methylidene]-4-azapregn-5-ene-3,20-dione] was tested, and the “MTT screening, cell proliferation” value (LNCaP cells [1]; 30 µM, average ± SD) was 0.7 ± 1.0 percentage of negative control, the IC50 (LNCaP cells [1]; Homo sapiens, MTT) was 10.2 µM and the “MTT screening, cell proliferation” value ([2]; 30 µM, average ± SD) was 23.8 ± 3.2 percentage of negative control. The IC50 ([2]; Homo sapiens, MTT) was 3.09 µM, the “MTT screening, cell proliferation” value (T47-D cells; 30 µM, average ± SD) was 1.0 ± 0.4 percentage of negative control and the IC50 (T47-D cells; Homo sapiens, T47D, MTT) was 1.33 µM. For the same compound, the IC50 (PC-3 cells; Homo sapiens, PC-3, 72 h, MTT) was 3.64 µM, the “MTT screening, cell proliferation” value (PC-3 cells; PC-3, 30 µM, 72 h, average ± SD) was 0.1 ± 0.1 percentage of negative control and the “Number of living cells (PI non-permeant)” value (LNCaP cells [3]; 24 h) was “drastic reduction in the number of living cells”. For the same compound, the “Number of viable cells (PI non-permeant)” value (LNCaP cells [3]; 72 h) was “almost absent”.
